pIC50: −log10 of the molar value.

For the test, the target named is Pseudomonas aeruginosa LpxC enzyme (Pseudomonas aeruginosa (strain ATCC 15692 / DSM 22644 / CIP 104116 / JCM 14847 / LMG 12228 / 1C / PRS 101 / PAO1), UniProt P47205). The experiment in a line: biochemical. The format is biochemical. Particulars: inhibitory activity on Pseudomonas aeruginosa LpxC enzyme, class symbols A/B/C; read-out: Enzyme inhibitory activity.
On to `CNC(=O)C(C(=O)NO)N(C)C(=O)c1ccc(-c2ccc(NCCCN(C)Cc3ccccc3)cc2)cc1` (stereo not shown) [Compound 97, 2-[{[4′-({3-[benzyl(methyl)amino]propyl}amino)biphenyl-4-yl]carbonyl}(methyl)amino]-N-hydroxy-N′-methylpropanediamide], for which the pIC50 was 7.00 to 8.00. The result for `CNC(=O)C(C(=O)NO)N(C)C(=O)c1ccc(-c2ccc(OCc3ccc(C(=O)O)cc3)cc2)cc1` (stereo not shown) [Compound 98, 4-{[(4′-{[1-(hydroxyamino)-3-(methylamino)-1,3-dioxopropan-2-yl](methyl)carbamoyl}biphenyl-4-yl)oxy]methyl}benzoate] reads 7.00 to 8.00. In the case of `CNC(=O)C(C(=O)NO)N(C)C(=O)c1ccc(-c2ccc(OCc3coc(C)n3)cc2)cc1` (stereo not shown) [Compound 99, N-hydroxy-N′-methyl-2-[methyl({4′-[(2-methyl-1,3-oxazol-4-yl)methoxy]biphenyl-4-yl}carbonyl)amino]propanediamide], the pIC50 was above 8.00.

Regarding `CNC(=O)C(C(=O)NO)N(C)C(=O)c1ccc(-c2ccc(NCCCNc3ccccc3)cc2)cc1` (stereo not shown) [Compound 100, N-hydroxy-N′-methyl-2-{methyl[(4′-{[3-(phenylamino)propyl]amino}biphenyl-4-yl)carbonyl]amino}propanediamide], the pIC50 was above 8.00. As to `CNC(=O)C(C(=O)NO)N(C)C(=O)c1ccc(-c2ccc(NC)cc2)c(NC)c1` (stereo not shown) [Compound 101, 2-[{[2,4′-bis(methylamino)biphenyl-4-yl]carbonyl}(methyl)amino]-N-hydroxy-N′-methylpropanediamide], the pIC50 was below 7.00. On to `CNC(=O)C(C(=O)NO)N(C)C(=O)c1ccc(-c2ccc(OCC3(CN4CCOCC4)CC3)cc2)cc1` (stereo not shown) [Compound 102, N-hydroxy-N′-methyl-2-{methyl[(4′-{[1-(morpholin-4-ylmethyl)cyclopropyl]methoxy}biphenyl-4-yl)carbonyl]amino}propanediamide], for which the pIC50 is 7.00 to 8.00.

In the case of `CNC(=O)C(C(=O)NO)N(C)C(=O)c1ccc(-c2ccc(NCC3CC3CNc3ccccc3)cc2)cc1` (stereo not shown) [Compound 103, N-hydroxy-N′-methyl-2-[methyl({4′-[({2-[(phenylamino)methyl]cyclopropyl}methyl)amino]biphenyl-4-yl}carbonyl)amino]propanediamide], the pIC50 was above 8.00. With `CNC(=O)C(C(=O)NO)N(C)C(=O)c1ccc(-c2ccoc2)cc1` (stereo not shown) [Compound 105, 2-{[4-(furan-3-yl)benzoyl](methyl)amino}-N-hydroxy-N′-methylpropanediamide], the pIC50 is below 7.00.

In the case of `CNC(=O)C(C(=O)NO)N(C)C(=O)c1ccc(-c2ccc(OCCCN(C)Cc3ccccc3)cc2NC)cc1` (stereo not shown) [Compound 106, 2-[{[4′-{3-[benzyl(methyl)amino]propoxy}-2′-(methylamino)biphenyl-4-yl]carbonyl}(methyl)amino]-N-hydroxy-N′-methylpropanediamide], the pIC50 is 7.00 to 8.00. Consider `CNC(=O)C(C(=O)NO)N(C)C(=O)c1ccc(-c2ncccc2F)cc1` (stereo not shown) [Compound 107, 2-{[4-(3-fluoropyridin-2-yl)benzoyl](methyl)amino}-N-hydroxy-N′-methylpropanediamide], for which the pIC50 is below 7.00. Regarding `CNC(=O)C(C(=O)NO)N(C)C(=O)c1ccc(-c2ccc(F)cn2)cc1` (stereo not shown) [Compound 108, 2-{[4-(5-fluoropyridin-2-yl)benzoyl](methyl)amino}-N-hydroxy-N′-methylpropanediamide], the pIC50 is below 7.00. Consider `O=C(NC(C(=O)NO)C(=O)NO)c1ccc(-c2ccccc2)cc1` [Compound 109, 2-[(biphenyl-4-ylcarbonyl)amino]-N,N′-dihydroxypropanediamide], for which the pIC50 was 7.00 to 8.00. The same measure for `CNC(=O)C(NC(=O)c1ccc(-c2ccccc2)cc1)C(=O)NO` (stereo not shown) [Compound 110, 2-[(biphenyl-4-ylcarbonyl)amino]-N-hydroxy-N′-methylpropanediamide]: 7.00 to 8.00; for `NC(=O)C(NC(=O)c1ccc(-c2ccccc2)cc1)C(=O)NO` (stereo not shown) [Compound 111, 2-[(biphenyl-4-ylcarbonyl)amino]-N-hydroxypropanediamide]: 7.00 to 8.00; for `CNC(=O)C(NC(=O)c1ccc(-c2ccc(OCCCN3CCCOCC3)cc2)cc1)C(=O)NO` (stereo not shown) [Compound 112, N-hydroxy-N′-methyl-2-[({4′-[3-(1,4-oxazepan-4-yl)propoxy]biphenyl-4-yl}carbonyl)amino]propanediamide]: above 8.00. In the case of `CNC(=O)C(NC(=O)c1ccc(-c2ccc(OCCO)cc2)cc1)C(=O)NO` (stereo not shown) [Compound 113, N-hydroxy-2-({[4′-(2-hydroxyethoxy)biphenyl-4-yl]carbonyl}amino)-N′-methylpropanediamide], the pIC50 is above 8.00. `CNC(=O)C(NC(=O)c1ccc(-c2ccc(NCCO)cc2)cc1)C(=O)NO` (stereo not shown) [Compound 114, N-hydroxy-2-[({4′-[(2-hydroxyethyl)amino]biphenyl-4-yl}carbonyl)amino]-N′-methylpropanediamide]: the pIC50 was 7.00 to 8.00. `CNC(=O)C(NC(=O)c1ccc(C#Cc2ccc(NCCO)cc2)cc1)C(=O)NO` (stereo not shown) [Compound 115, N-hydroxy-2-{[4-({4-[(2-hydroxyethyl)amino]phenyl}ethynyl)benzoyl]amino}-N′-methylpropanediamide]: the pIC50 is above 8.00. For the compound `O=C(NC(C(=O)NO)C(=O)Nc1cccnc1)c1ccc(-c2ccc(OCCO)cc2)cc1` (stereo not shown) [Compound 116, N-hydroxy-2-({[4′-(2-hydroxyethoxy)biphenyl-4-yl]carbonyl}amino)-N′-(pyridin-3-yl)propanediamide], the pIC50 was 7.00 to 8.00.

As for `CNC(=O)C(NC(=O)c1ccc(C#Cc2ccc(CN3CCCOCC3)cc2)cc1)C(=O)NO` (stereo not shown) [Compound 117, N-hydroxy-N′-methyl-2-[(4-{[4-(1,4-oxazepan-4-ylmethyl)phenyl]ethynyl}benzoyl)amino]propanediamide], the pIC50 was above 8.00.

As for `CN(C)C(=O)C(NC(=O)c1ccc(-c2ccc(OCCO)cc2)cc1)C(=O)NO` (stereo not shown) [Compound 118, N′-hydroxy-2-({[4′-(2-hydroxyethoxy)biphenyl-4-yl]carbonyl}amino)-N,N-dimethylpropanediamide], the pIC50 was below 7.00. The result for `CC(C)(C)NC(=O)C(NC(=O)c1ccc(-c2ccc(OCCO)cc2)cc1)C(=O)NO` (stereo not shown) [Compound 119, N-tert-butyl-N′-hydroxy-2-({[4′-(2-hydroxyethoxy)biphenyl-4-yl]carbonyl}amino)propanediamide] reads below 7.00; that for `O=C(NC(C(=O)NO)C(=O)NCc1ccccc1)c1ccc(-c2ccc(OCCO)cc2)cc1` (stereo not shown) [Compound 120, N-benzyl-N′-hydroxy-2-({[4′-(2-hydroxyethoxy)biphenyl-4-yl]carbonyl}amino)propanediamide], above 8.00; that for `O=C(NC(C(=O)NO)C(=O)NC1CC1)c1ccc(-c2ccc(OCCO)cc2)cc1` (stereo not shown) [Compound 121, N-cyclopropyl-N′-hydroxy-2-({[4′-(2-hydroxyethoxy)biphenyl-4-yl]carbonyl}amino)propanediamide], 7.00 to 8.00. The result for `O=C(NC(C(=O)NO)C(=O)NCCO)c1ccc(-c2ccc(OCCO)cc2)cc1` (stereo not shown) [Compound 122, N-hydroxy-2-({[4′-(2-hydroxyethoxy)biphenyl-4-yl]carbonyl}amino)-N′-(2-hydroxyethyl)propanediamide] reads 7.00 to 8.00; that for `CN(C)CCNC(=O)C(NC(=O)c1ccc(-c2ccc(OCCO)cc2)cc1)C(=O)NO` (stereo not shown) [Compound 123, N-[2-(dimethylamino)ethyl]-N′-hydroxy-2-({[4′-(2-hydroxyethoxy)biphenyl-4-yl]carbonyl}amino)propanediamide], below 7.00; that for `O=C(NC(C(=O)NO)C(=O)NCc1ccncc1)c1ccc(-c2ccc(OCCO)cc2)cc1` (stereo not shown) [Compound 124, N-hydroxy-2-({[4′-(2-hydroxyethoxy)biphenyl-4-yl]carbonyl}amino)-N′-(pyridin-4-ylmethyl)propanediamide], above 8.00.

For the compound `O=C(NC(C(=O)NO)C(=O)NCCc1ccccc1)c1ccc(-c2ccc(OCCO)cc2)cc1` (stereo not shown) [Compound 125, N-hydroxy-2-({[4′-(2-hydroxyethoxy)biphenyl-4-yl]carbonyl}amino)-N′-(2-phenylethyl)propanediamide], the pIC50 is 7.00 to 8.00. On to `O=C(NC(C(=O)NO)C(=O)NCCCc1ccccc1)c1ccc(-c2ccc(OCCO)cc2)cc1` (stereo not shown) [Compound 126, N-hydroxy-2-({[4′-(2-hydroxyethoxy)biphenyl-4-yl]carbonyl}amino)-N′-(3-phenylpropyl)propanediamide], for which the pIC50 is above 8.00. The same measure for `CNC(=O)C(C(=O)NO)N(C(=O)c1ccc(-c2ccccc2)cc1)C1CC1` (stereo not shown) [Compound 127, 2-[(Biphenyl-4-ylcarbonyl)(cyclopropyl)amino]-N-hydroxy-N′-methylpropanediamide]: above 8.00; for `O=C(NC(C(=O)NO)C(=O)NCC1CCC1)c1ccc(-c2ccc(OCCO)cc2)cc1` (stereo not shown) [Compound 128, N-(cyclobutylmethyl)-N′-hydroxy-2-({[4′-(2-hydroxyethoxy)biphenyl-4-yl]carbonyl}amino)propanediamide]: above 8.00; for `O=C(NC(C(=O)NO)C(=O)NCc1cccnc1)c1ccc(-c2ccc(OCCO)cc2)cc1` (stereo not shown) [Compound 129, N-hydroxy-2-({[4′-(2-hydroxyethoxy)biphenyl-4-yl]carbonyl}amino)-N′-(pyridin-3-ylmethyl)propanediamide]: above 8.00. The same measure for `O=C(NC(C(=O)NO)C(=O)NCc1ccccn1)c1ccc(-c2ccc(OCCO)cc2)cc1` (stereo not shown) [Compound 130, N-hydroxy-2-({[4′-(2-hydroxyethoxy)biphenyl-4-yl]carbonyl}amino)-N′-(pyridin-2-ylmethyl)propanediamide]: above 8.00; for `COCCNC(=O)C(NC(=O)c1ccc(-c2ccc(OCCO)cc2)cc1)C(=O)NO` (stereo not shown) [Compound 131, N-hydroxy-2-({[4′-(2-hydroxyethoxy)biphenyl-4-yl]carbonyl}amino)-N′-(2-methoxyethyl)propanediamide]: 7.00 to 8.00.

These data come from patent publication US9073821B2, “Hydroxamic acid derivative” (priority 2010, dated 2015).
